Experimental data: paper PMC11212559 (Emerging Microbes & Infections, 2024)

Biological target: E1CTD (Monkeypox virus Zaire-96-I-16, UniProt Q8V4Y7)

C[S+](CC[C@H](N)C(=O)O)C[C@H]1O[C@@H](n2cnc3c(N)ncnc32)[C@H](O)[C@@H]1O (stereo partly shown) [SAM]
no detectable binding ability: the E1CTD also shows no detectable binding ability to SAM
